Measured values reported in US9980943B2, “Methods of treating muscular dystrophy” (BOARD OF REGENTS OF THE NEVADA SYSTEM OF HIGHER EDUCATION, …, priority 2013, dated 2018).
Where two headings read alike, the source gives them in different places.

Tested on: α7 integrin (LacZ reporter in α7LacZ+/− myoblasts)
Test: qHTS of the LOPAC library and MLSMR (online screen, α7LacZ+/− myoblasts)
Settings: for activation at 0.307 µM / activation at 1.53 µM / activation at 7.66 µM / activation at 38.3 µM / Emax / EC50: Mus musculus, Myoblast; for activation at 0.307 µM: read-out: Activity at 0.307 uM [%] **; for activation at 1.53 µM: read-out: Activity at 1.530 uM [%] **; for activation at 7.66 µM: read-out: Activity at 7.660 uM [%] **; for activation at 38.3 µM: read-out: Activity at 38.30uM [%] **; for EC50: read-out: Fit LogAC50 (converted)
[1] = 48 h, read-out: Fit Infinite Activity [%]

Procedure: A total of 250 α7LacZ^+/− myoblasts at passage 13 were dispensed using a multidrop (Thermo) into black low base tissue culture treated microclear aurora plates in 6 μl media containing DMEM without phenol, 5% FBS, 1× GluMax and 1× Penicillin/Streptomycin. […] Compounds were then dispensed using a Kalypsys pintool to deliver 23 nl/well compounds in DMSO (diluted into 6 μl resulting in a 1:260 dilution of compound). […] After incubation with compound, 5 μl of the media was aspirated using the Kalypsys washer/dispenser and 3 μl of the Mammalian Protein Extraction Reagent (MPER) lysis buffer (Thermo Fisher) was added. […] The plates were then incubated for 10 minutes at room temperature.
The assay was adapted for a high-throughput screen with the fully automated Kalypsys robotic system using 1536 well plates at NCGC.

SMILES	activation at 0.307 µM (48 h) [%]	activation at 1.53 µM (48 h) [%]	activation at 7.66 µM (48 h) [%]	activation at 38.3 µM (48 h) [%]	Emax [1] [%]	EC50 [µM]	Emax (read-out: Max Response [%]) [%]	Score (Table 8 Compound data)
COc1ccc(CNC(=O)COC(=O)CCc2c[nH]c3ccccc23)cc1 [Compound 184]	0	-0.551	26	83.9	85.5	10	83.9	–
O=C(NCCc1ccccc1)C1CCC(=O)N1C1CCCC1 (stereo not shown) [Compound 104]	-6.49	-11.7	27.3	127	128	10	127	–
Cc1ccc(S(=O)(=O)N2CN(CC3CCCO3)c3nc4ccccc4nc32)c(C)c1 (stereo not shown) [Compound 91]	-19.2	-13.3	6.57	121	122	11.2	121	43
COCc1c(C(=O)OCc2nc(=O)c3sccc3[nH]2)oc2ccccc12 [Compound 6]	-39.8	19.2	60.6	68.1	69.6	1.12	–	–
O=S(=O)(c1ccccc1)N1CCCC(c2nc(O)c3nnn(Cc4cccc(Cl)c4)c3n2)C1 (stereo not shown) [Compound 161]	-37	-17.7	22.4	48.1	55	–	48.1	–
COc1ccc(Nc2ncnc3ccc(C)cc23)cc1 [Compound 58]	-29.7	3.35	49.1	82.8	95.6	3.55	82.8	–
COc1ccccc1CNS(=O)(=O)c1ccc(Cl)s1 [Compound 103]	-22	-16.4	50.2	91.3	96.9	6.31	91.3	–
CCS(=O)(=O)N1CCCC(C(=O)c2ccc(OC)cc2C)C1 (stereo not shown) [Compound 83]	-13.5	-10.6	41.5	149	162	11.2	149	–
Sc1nnc(Cn2cnc3ccccc32)n1-c1ccccc1 [Compound 189]	13.1	23.7	44	66.7	84.6	–	66.7	–
CC(C)(CC(=O)O)CC(=O)N1CCCN(c2nccc(C(F)(F)F)n2)CC1 [Compound 56]	24	38.1	86.7	108	111	3.98	108	–
COCc1c(C(=O)N/N=C(\C)c2ccc(OCc3ccccc3)cc2)nnn1-c1nonc1N [Compound 143]	4.28	4.88	22.4	80.8	81.3	10	80.8	–
COc1ccc(C(=O)ONC(=N)c2cccc(C)c2)cc1OC [Compound 78]	10.1	15.5	69.8	148	163	10	148	–
O=S(=O)(NCC(c1ccco1)N1CCOCC1)c1ccc(Cl)cc1 (stereo not shown) [Compound 212]	11.1	7.37	15.9	128	129	–	128	–
COc1cc(NC(=O)CN(C)S(=O)(=O)c2ccc3c(c2)CC(C)N3C(C)=O)cc(OC)c1OC (stereo not shown) [Compound 145]	0.302	0.181	15.7	70.5	70.5	10	70.5	–
COc1cccc(N2C(=O)CC(N3CCc4ccccc4C3)C2=O)c1 (stereo not shown) [Compound 176]	-22.1	-16.9	5.26	95.9	96.1	10	95.9	–
COc1ccc(-n2c(C)c(C(C)=O)c3cc(OC(C)=O)ccc32)cc1 [Compound 59]	0	-6.19	48.5	184	185	10	184	–
Cc1cc(C(=O)Nc2cccc3ccccc23)c(C)o1 [Compound 153]	-20.8	-14.3	26.2	66	74.5	–	66	–
